16 compounds from US9247759B2, “Identification of human T2R receptors that respond to bitter compounds that elicit the bitter taste in compositions, and the use thereof in assays to identify compounds that inhibit (block) bitter taste in compositions and use thereof” (SENOMYX, INC., priority 2007, dated 2016) can be followed below.

Molecules are shown by their SMILES. Read-outs that look alike come from different tables or passages of the source.

The target in one series is hT2R8 (Homo sapiens (Human), UniProt Q9NYW2). Kind of series: hT2R8 antagonist high-throughput FLIPR assay, stable cell line with G16g44, agonist andrographolide. The class given is cell-based. The procedure, abridged: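 HEK293 cells stably co-expressing hT2R8 and chimeric G16g44, read on FLIPR. Test compounds added together with andrographolide (200 μM), which drives the receptor to 70–80% of maximal activity; antagonism seen as reduced agonist response.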
Chain of hT2R8 (Q9NYW2 whole entry): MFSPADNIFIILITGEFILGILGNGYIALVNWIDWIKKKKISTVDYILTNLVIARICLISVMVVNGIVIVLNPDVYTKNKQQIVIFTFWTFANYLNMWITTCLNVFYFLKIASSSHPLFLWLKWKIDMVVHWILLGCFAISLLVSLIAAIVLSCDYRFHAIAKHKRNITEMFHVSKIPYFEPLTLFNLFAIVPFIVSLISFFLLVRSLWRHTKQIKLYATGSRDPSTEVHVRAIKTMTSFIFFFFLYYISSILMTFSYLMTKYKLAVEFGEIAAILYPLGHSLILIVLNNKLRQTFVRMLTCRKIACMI

The mark [1] stands for this setting: read-out: IC50 on hT2R8 bitter receptor.
[2] abbreviates: table after Example 10-97, read-out: hT2R8 IC50.

Regarding `Cc1noc(C)c1Cn1cc(NC(=O)c2ccccn2)cn1` [Example 4-1, N-(1-((3,5-dimethylisoxazol-4-yl)methyl)-1H-pyrazol-4-yl)picolinamide], the melting point (usually the temperature, or range, at which the solid turns liquid) was 135 to 137 °C. For the same compound, the IC50 (as a rule, the concentration that inhibits the measured activity by half) at hT2R8 (setting [1]) was found to be 570 nM.
In the case of `Cc1noc(C)c1Cn1cc(NC(=O)c2scc(S(C)(=O)=O)c2Cl)cn1` [Example 4-2, 3-chloro-N-(1-((3,5-dimethylisoxazol-4-yl)methyl)-1H-pyrazol-4-yl)-4-(methylsulfonyl)thiophene-2-carboxamide], the melting point was 202 to 204 °C. For the same compound, the IC50 at hT2R8 (setting [1]) was 2090 nM.
The compound `Cc1noc(C)c1Cn1cc(NC(=O)[C@@H](C)c2ccccc2)cn1` [Example 4-3, (S)—N-(1-((3,5-dimethylisoxazol-4-yl)methyl)-1H-pyrazol-4-yl)-2-phenylpropanamide] registered a melting point of 108 to 110 °C. On hT2R8 (setting [1]), the IC50 was 410 nM.
For `COc1cc(CC(=O)Nc2cnn(Cc3c(C)noc3C)c2)cc(OC)c1O` [Example 4-4, N-(1-((3,5-dimethylisoxazol-4-yl)methyl)-1H-pyrazol-4-yl)-2-(4-hydroxy-3,5-dimethoxyphenyl)acetamide] the same measures were 187 to 188 °C and 460 nM.
In turn, `Cc1noc(C)c1Cn1cc(NC(=O)C(C)c2ccccc2)cn1` (stereo not shown) [Example 4-5, N-(1-((3,5-dimethylisoxazol-4-yl)methyl)-1H-pyrazol-4-yl)-2-phenylpropanamide] had a melting point of 129 to 130 °C. Moreover, at hT2R8 (setting [1]), the IC50 is 320 nM.
Compound `Cc1noc(C)c1Cn1cc(NC(=O)Cc2ccccc2)cn1` [Example 4-6, N-(1-((3,5-dimethylisoxazol-4-yl)methyl)-1H-pyrazol-4-yl)-2-phenylacetamide] yielded a melting point of 106 to 108 °C. Besides, the IC50 at hT2R8 (setting [1]) was found to be 530 nM.
Turning to `COc1cccc(C(=O)Nc2cnn(Cc3c(C)noc3C)c2)c1` [Example 4-7, N-(1-((3,5-dimethylisoxazol-4-yl)methyl)-1H-pyrazol-4-yl)-3-methoxybenzamide], the melting point lay within 127 to 129 °C. Further, on hT2R8 (setting [1]), the IC50 was found to be 390 nM.
Compound `Cc1noc(C)c1Cn1cc(NC(=O)C23CC4CC(CC(C4)C2)C3)cn1` [Example 4-16, N-(1-((3,5-dimethylisoxazol-4-yl)methyl)-1H-pyrazol-4-yl) adamantane] came in with a melting point of 167 to 169 °C. Also, the IC50 on hT2R8 (setting [1]) came out at 880 nM.
Take `Cc1noc(C)c1Cn1cc(N2C(=O)c3ccccc3C2=O)cn1` [Example 9-1, 2-(1-((3,5-dimethylisoxazol-4-yl)methyl)-1H-pyrazol-4-yl)isoindoline-1,3-dione]: the melting point fell in the range of 170 to 171 °C. On hT2R8 (setting [1]), the IC50 is 180 nM.
For `Cc1noc(C)c1Cn1cc(N2C(=O)NC(Cc3ccccc3)C2=O)cn1` (stereo not shown) [Example 10-2, 5-benzyl-3-(1-((3,5-dimethylisoxazol-4-yl)methyl)-1H-pyrazol-4-yl)imidazolidine-2,4-dione] the same measures were 169 to 171 °C and 180 nM.
`Cc1noc(C)c1Cn1cc(N2C(=O)CN(CCOc3ccccc3)C2=O)cn1` [Example 10-5, 3-(1-((3,5-dimethylisoxazol-4-yl)methyl)-1H-pyrazol-4-yl)-1-(2-phenoxyethyl)imidazolidine-2,4-dione]: the melting point was 117 to 118 °C. The IC50 on hT2R8 (setting [1]) was 60 nM. On hT2R8 (setting [2]), the IC50 worked out at 63 nM.
For the compound `Cc1noc(C)c1Cn1cc(-n2c(=O)n(C)n(Cc3ccccc3)c2=O)cn1` [Example 10-65, 1-Benzyl-4-(1-((3,5-dimethylisoxazol-4-yl)methyl)-1H-pyrazol-4-yl)-2-methyl-1,2,4-triazolidine-3,5-dione], the melting point was in the range of 124 to 126 °C. The IC50 on hT2R8 (setting [1]) amounted to 20 nM. Besides, at hT2R8 (setting [2]), the IC50 was 19 nM.
The compound `COc1ccccc1CCN1CC(=O)N(c2cnn(Cc3c(C)noc3C)c2)C1=O` [Example 10-76, 3-(1-((3,5-dimethylisoxazol-4-yl)methyl)-1H-pyrazol-4-yl)-1-(2-methoxyphenethyl)imidazolidine-2,4-dione] returned a melting point of 97 to 98 °C. Besides, the IC50 on hT2R8 (setting [1]) was 140 nM. Also, the IC50 at hT2R8 (setting [2]) was found to be 97 nM.
The like results for `Cc1noc(C)c1Cn1cc(N2C(=O)CN(CCc3cccc(F)c3)C2=O)cn1` [Example 10-77, 3-(1-((3,5-dimethylisoxazol-4-yl)methyl)-1H-pyrazol-4-yl)-1-(3-fluorophenethyl)imidazolidine-2,4-dione] were, in that order, 110 to 111 °C, 60 nM and 64 nM.
Take `Cc1noc(C)c1Cn1cc(N2C(=O)CN(CCc3ccccc3)C2=O)cn1` [Example 10-78, 3-(1-((3,5-dimethylisoxazol-4-yl)methyl)-1H-pyrazol-4-yl)-1-phenethylimidazolidine-2,4-dione]: the melting point was 95 to 96 °C. Also, the IC50 on hT2R8 (setting [1]) came out at 140 nM. Besides, the IC50 on hT2R8 (setting [2]) is 139 nM.
On to `COc1cccc(CN2C(=O)N(c3cnn(Cc4c(C)noc4C)c3)C(=O)C2(C)C)c1` [Example 12-32, 3-(1-((3,5-dimethylisoxazol-4-yl)methyl)-1H-pyrazol-4-yl)-1-(3-methoxybenzyl)-5,5-dimethylimidazolidine-2,4-dione], for which the melting point is 107 to 108 °C. The IC50 at hT2R8 (setting [1]) is 80 nM.
